The structures appear in SMILES notation.

Experiment [1] concerns the target T1, IDO1 (Homo sapiens (Human), UniProt P14902). The experiment is described as follows: IDO1 Cellular Assay in Hela Cells Stimulated with IFNγ. The experiment is classed as cell-based. The conditions noted are these: Hela cells stimulated with IFNγ 100 ng/mL; read-out: IDO1 HELA Cell Assay, IC50.
In experiment [2] the target is T1, IDO1. The experiment is described as follows: IDO1 Enzyme Assay. The note with it: read-out: IDO1 Enzyme Assay, IC50; HIS-tagged recombinant IDO1, 40 nM.
For experiment [3], the target named is T1, IDO1. The experiment is described as follows: IDO1 Cellular Assay in Frozen HEK293 Cells Transiently Transfected with Human IDO1. The experiment is classed as cell-based. The note with it: HEK293 cells transiently transfected with human IDO1; read-out: IDO1 HEK293 Cell Assay, IC50.

T1 sequence (P14902 whole entry): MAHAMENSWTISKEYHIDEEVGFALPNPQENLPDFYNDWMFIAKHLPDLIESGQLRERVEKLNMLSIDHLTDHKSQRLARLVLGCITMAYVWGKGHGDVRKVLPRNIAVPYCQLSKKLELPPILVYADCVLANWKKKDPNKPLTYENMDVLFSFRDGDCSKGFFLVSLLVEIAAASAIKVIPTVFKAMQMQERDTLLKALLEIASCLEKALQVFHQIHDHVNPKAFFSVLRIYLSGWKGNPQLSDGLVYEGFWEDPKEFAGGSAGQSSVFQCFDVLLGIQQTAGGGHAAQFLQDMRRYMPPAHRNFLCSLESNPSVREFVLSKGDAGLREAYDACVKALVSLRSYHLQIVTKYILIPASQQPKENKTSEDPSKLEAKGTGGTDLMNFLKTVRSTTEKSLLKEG

For `N#CC1(CSc2nonc2/C(=N/O)Nc2ccc(F)c(Br)c2)CC1` [Example 68, N-(3-bromo-4-fluorophenvl)-4-{[(1-cyanocyclopropyl)methyl]sulfanyl}-N′-hydroxy-1,2,5-oxadiazole-3-carboximidamide], the IC50 – broadly, the midpoint of a concentration-inhibition curve – in experiment [1] amounted to 77.2 nM; in experiment [2], 96.2 nM; in experiment [3], 107 nM.
The matching figures for `CNC(=O)CCSc1nonc1/C(=N/O)Nc1ccc(F)c(Br)c1` [Example 70, 3-({4-[N-(3-bromo-4-fluorophenyl)-N′-hydroxycarbamimidoyl]-1,2,5-oxadiazol-3-yl}sulfanyl)-N-methylpropanamide]: 20.9 nM, 27.9 nM and 26.2 nM.
The matching figures for `NS(=O)(=O)c1ccc(CCSc2nonc2/C(=N/O)Nc2ccc(F)c(Br)c2)cc1` [Example 71, N-(3-bromo-4-fluorophenyl)-N′-hydroxy-4-{[2-(4-sulfamoylphenyl)ethyl]sulfanyl}-1,2,5-oxadiazole-3-carboximidamide]: 91.2 nM, 407 nM and 109 nM.
The matching figures for `O/N=C(\Nc1ccc(F)c(Br)c1)c1nonc1SC1CCNCC1` [Example 72, N-(3-bromo-4-fluorophenyl)-N′-hydroxy-4-(piperidin-4-ylsulfanyl)-1,2,5-oxadiazole-3-carboximidamide]: 283 nM, 87.8 nM and 231 nM.
As to `Nc1c(NCCSc2nonc2/C(=N/O)Nc2ccc(F)c(Br)c2)c(=O)c1=O` [Example 73, 4-({2-[(2-amino-3,4-dioxocyclobut-1-en-1-yl)amino]ethyl}sulfanyl)-N-(3-bromo-4-fluorophenyl)-N′-hydroxy-1,2,5-oxadiazole-3-carboximidamide], the IC50 in experiment [1] amounted to 106 nM; in experiment [2], 27.2 nM; in experiment [3], 376 nM.
For `O/N=C(\Nc1ccc(F)c(Br)c1)c1nonc1SCC(O)c1ccccc1` (stereo not drawn) [Example 74, N-(3-bromo-4-fluorophenyl)-N′-hydroxy-4-[(2-hydroxy-2-phenylethyl)sulfanyl]-1,2,5-oxadiazole-3-carboximidamide], the IC50 in experiment [1] was 388 nM; in experiment [2], 503 nM; in experiment [3], 579 nM.
For `NS(=O)(=O)N1CCC(Sc2nonc2/C(=N/O)Nc2ccc(F)c(Br)c2)CC1` [Example 76, N-(3-bromo-4-fluorophenyl)-N′-hydroxy-4-[(1-sulfamoylpiperidin-4-yl)sulfanyl]-1,2,5-oxadiazole-3-carboximidamide], the IC50 in experiment [1] is 43.8 nM; in experiment [2], 97.2 nM; in experiment [3] it was 114 nM.
The matching figures for `NC(=O)CSc1nonc1/C(=N/O)Nc1ccc(F)c(Br)c1` [Example 77, 2-({4-[N-(3-bromo-4-fluorophenyl)-N′-hydroxycarbamimidoyl]-1,2,5-oxadiazol-3-yl}sulfanyl)acetamide]: 43.5 nM, 51.8 nM and 36.4 nM.
The matching figures for `CN1CCOC(CSc2nonc2/C(=N/O)Nc2ccc(F)c(Br)c2)C1` (stereo not drawn) [Example 78, N-(3-bromo-4-fluorophenyl)-N′-hydroxy-4-{[(4-methylmorpholin-2-yl)methyl]sulfanyl}-1,2,5-oxadiazole-3-carboximidamide]: 57.7 nM, 90.9 nM and 101 nM.
The matching figures for `O=C(NCCSc1nonc1/C(=N/O)Nc1ccc(F)c(Br)c1)C(F)(F)F` [Example 79, N-[2-({4-[N-(3-bromo-4-fluorophenyl)-N′-hydroxycarbamimidoyl]-1,2,5-oxadiazol-3-yl}sulfanyl)ethyl]-2,2,2-trifluoroacetamide]: 24.1 nM, 61.6 nM and 27.5 nM.
Regarding `N#CC12CC(CSc3nonc3/C(=N/O)Nc3ccc(F)c(Br)c3)(C1)C2` [Example 80, N-(3-bromo-4-fluorophenyl)-4-{[(3-cyanobicyclo[1.1.1]pent-1-yl)methyl]sulfanyl}-N′-hydroxy-1,2,5-oxadiazole-3-carboximidamide], the IC50 came out at 37.9 nM in experiment [1], 125 nM in experiment [2] and 78.1 nM in experiment [3].
On to `CNC(=O)N1CC(Sc2nonc2/C(=N/O)Nc2ccc(F)c(Br)c2)C1` [Example 81, 3-({4-[N-(3-bromo-4-fluorophenyl)-N′-hydroxycarbamimidoyl]-1,2,5-oxadiazol-3-yl}sulfanyl)-N-methylazetidine-1-carboxamide], for which the IC50 in experiment [1] was 42.9 nM; in experiment [2], 41.8 nM; in experiment [3] it was 36.9 nM.
As for `O=S1(=O)CCC(Sc2nonc2/C(=N/O)Nc2ccc(F)c(Br)c2)CC1` [Example 82, N-(3-bromo-4-fluorophenyl)-4-[(1,1-dioxidotetrahydro-2H-thiopyran-4-yl)sulfanyl]-N′-hydroxy-1,2,5-oxadiazole-3-carboximidamide], the IC50 was determined as 40.6 nM in experiment [1], 102 nM in experiment [2] and 78.1 nM in experiment [3].
On to `O=C1CC[C@H](CSc2nonc2/C(=N/O)Nc2ccc(F)c(Br)c2)N1` [Example 83, N-(3-bromo-4-fluorophenyl)-N′-hydroxy-4-({[(2R)-5-oxopyrrolidin-2-yl]methyl}sulfanyl)-1,2,5-oxadiazole-3-carboximidamide], for which the IC50 is 75.9 nM in experiment [1], 22.8 nM in experiment [2] and 11.5 nM in experiment [3].
For `N#C/N=C(\N)NCCSc1nonc1/C(=N/O)Nc1ccc(F)c(Br)c1` [Example 85, N-(3-bromo-4-fluorophenyl)-4-{[2-(N″- cyanocarbamimidamido)ethyl]sulfanyl}-N′-hydroxy-1,2,5-oxadiazole-3-carboximidamide], the figures for the IC50 in experiment [1], in experiment [2] and in experiment [3] were 16.9 nM, 39.3 nM and 35.7 nM, respectively.
Regarding `CC(=O)N1CCC(Sc2nonc2/C(=N/O)Nc2ccc(F)c(Br)c2)CC1` [Example 87, 4-[(1-acetylpiperidin-4-yl)sulfanyl]-N-(3-bromo-4-fluorophenyl)-N′-hydroxy-1,2,5-oxadiazole-3-carboximidamide], the IC50 turned out to be 70 nM in experiment [1], 99.7 nM in experiment [2] and 133 nM in experiment [3].
As for `O=c1c(NCCSc2nonc2/C(=N/O)Nc2ccc(F)c(Br)c2)c(N2CCOCC2)c1=O` [Example 91, N-(3-bromo-4-fluorophenyl)-N′-hydroxy-4-({2-[(2-morpholin-4-yl-3,4-dioxocyclobut-1-en-1-yl)amino]ethyl}sulfanyl)-1,2,5-oxadiazole-3-carboximidamide], the IC50 in experiment [1] was 357 nM; in experiment [2] it was 57.4 nM; in experiment [3], 367 nM.
With `O=c1[nH]nc(CSc2nonc2/C(=N/O)Nc2ccc(F)c(Br)c2)cc1C(F)(F)F` [Example 92, N-(3-bromo-4-fluorophenyl)-N′-hydroxy-4-({[6-oxo-5-(trifluoromethyl)-1,6-dihydropyridazin-3-yl]methyl}sulfanyl)-1,2,5-oxadiazole-3-carboximidamide], the IC50 in experiment [1] stood at 145 nM; in experiment [2], 99.5 nM; in experiment [3] it was 364 nM.
For `O=c1c(NCCSc2nonc2/C(=N/O)Nc2ccc(F)c(Br)c2)c(N2CCCCC2)c1=O` [Example 93, N-(3-bromo-4-fluorophenyl)-4-({2-[(3,4-dioxo-2-piperidin-1-ylcyclobut-1-en-1-yl)amino]ethyl}sulfanyl)-N′-hydroxy-1,2,5-oxadiazole-3-carboximidamide], the IC50 was found to be 249 nM in experiment [1], 39 nM in experiment [2] and 404 nM in experiment [3].
The matching figures for `CC(C)Nc1c(NCCSc2nonc2/C(=N/O)Nc2ccc(F)c(Br)c2)c(=O)c1=O` [Example 94, N-(3-bromo-4-fluorophenyl)-N′-hydroxy-4-{[2-({2-[(1-methylethyl)amino]-3,4-dioxocyclobut-1-en-1-yl}amino)ethyl]sulfanyl}-1,2,5-oxadiazole-3-carboximidamide]: 73 nM, 26.8 nM and 193 nM.
`NC(=O)CCSc1nonc1/C(=N/O)Nc1ccc(F)c(Br)c1` [Example 96, 3-({4-[N-(3-bromo-4-fluorophenyl)-N′-hydroxycarbamimidoyl]-1,2,5-oxadiazol-3-yl}sulfanyl)propanamide]: the IC50 in experiment [1] turned out to be 24.7 nM; in experiment [2] it was 36.9 nM; in experiment [3] it was 32.9 nM.
Consider `CC(C)OC(=O)[C@H](C)NP(=O)(CCSc1nonc1/C(=N/O)Nc1ccc(F)c(Br)c1)N[C@@H](C)C(=O)OC(C)C` [Example 97, 1-methylethyl (2S,6S)-4-[2-({4-[N-(3-bromo-4-fluorophenyl)-N′-hydroxycarbamimidoyl]-1,2,5-oxadiazol-3-yl}sulfanyl)ethyl]-2,6,9-trimethyl-7-oxo-8-oxa-3,5-diaza-4-phosphadecan-1-oate 4-oxide], for which the IC50 in experiment [1] came to 380 nM; in experiment [2], 132 nM; in experiment [3], 745 nM.
The matching figures for `N/C(=C\[N+](=O)[O-])NCCSc1nonc1C(=NO)Nc1ccc(F)c(Br)c1` [Example 99, 4-[(2-{[(E)-1-amino-2-nitroethenyl]amino}ethyl)sulfanyl]-N-(3-bromo-4-fluorophenyl)-N′-hydroxy-1,2,5-oxadiazole-3-carboximidamide]: 195 nM, 84 nM and 231 nM.
In the case of `COCCNP(=O)(CCSc1nonc1/C(=N/O)Nc1ccc(F)c(Br)c1)NCCOC` [Example 100, 4-[(2-{bis[(2-methoxyethyl)amino]phosphoryl}ethyl)sulfanyl]-N-(3-bromo-4-fluorophenyl)-N′-hydroxy-1,2,5-oxadiaxole-3-carboximidamide], the IC50 in experiment [1] was 342 nM; in experiment [2] it was 98.8 nM; in experiment [3], 582 nM.
